Molecular target: T1, His-MpCAPE-PDE (Marchantia polymorpha, UniProt A0A1V1FXL5)
T1 construct: gene CAPE; N-terminal PDE domain 101-479 of 1610-residue MpCAPE; 6xHis and T7 tags (pET28a); E. coli Rosetta2(DE3)pLysS host; partially purified on Ni column
Assay: reverse-phase HPLC of AMP or GMP formed, […] nm
Assay type: biochemical
Conditions: 0.5 mM cGMP, 0.5 mM MgCl2, MnCl2 or FeCl2, Tris-HCl pH 8.0, 37 °C, 20 min; partially purified protein

T1 sequence (A0A1V1FXL5 entry or part of it): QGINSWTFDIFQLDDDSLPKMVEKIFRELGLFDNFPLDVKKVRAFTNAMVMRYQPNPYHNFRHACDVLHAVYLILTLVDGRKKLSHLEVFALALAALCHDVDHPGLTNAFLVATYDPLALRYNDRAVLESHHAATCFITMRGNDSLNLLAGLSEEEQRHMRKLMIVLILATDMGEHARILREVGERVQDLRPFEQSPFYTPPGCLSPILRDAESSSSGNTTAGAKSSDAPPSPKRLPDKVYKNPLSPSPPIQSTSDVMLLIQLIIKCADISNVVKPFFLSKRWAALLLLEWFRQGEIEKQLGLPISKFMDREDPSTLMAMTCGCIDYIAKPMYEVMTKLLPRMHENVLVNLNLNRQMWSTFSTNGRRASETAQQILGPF

Nc1nc2c(ncn2[C@@H]2O[C@@H]3COP(=O)(O)O[C@H]3[C@H]2O)c(=O)[nH]1 [cGMP]
reverse-phase HPLC of AMP or GMP formed, 259 nm: The result showed that His-MpCAPE-PDE hydrolyzed both cAMP and cGMP
